# Results published in US20260041744A1, “Methods for Treating Pompe Disease” (Amicus Therapeutics, Inc., priority 2022, published 2026).
# Key:
# [1] = Miglustat plasma pharmacokinetics in patients, incl. renal impairment; assay type: in vivo, human
# Method: At the recommended 260 mg dose, the mean Cmax was approximately 3 mcg/mL and the mean AUC was approximately 25 mcg*hr/mL. The mean time to reach the maximum concentration ranged from 2 hours to 3 hours.
# Plasma concentrations of miglustat increased in patients with renal impairment. Accordingly, the apparent clearance of miglustat decreased with decreasing renal function. […] In some embodiments, the dosage of miglustat in patients with moderate or severe renal impairment is reduced as compared to patients with normal renal function.
# [2] = test system: healthy adult men; experiment: Sperm parameters in healthy adult men; assay type: in vivo, human; settings: 100 mg orally twice daily for 6 weeks
# [3] = test system: rats; experiment: Sperm characteristics and fertility in rats; assay type: in vivo, rat
# [4] = target: ATB200 (Homo sapiens, UniProt P10253); experiment: Thermostability assay using SYPRO Orange; settings: pH 7.4
# [5] = target: CIMPR (Homo sapiens, UniProt P11717); experiment: CIMPR affinity chromatography of rhGAA (bound vs flow-through by GAA activity); assay type: binding; settings: CIMPR affinity column
# Sequence of CIMPR (P11717 41-2491, species assumed): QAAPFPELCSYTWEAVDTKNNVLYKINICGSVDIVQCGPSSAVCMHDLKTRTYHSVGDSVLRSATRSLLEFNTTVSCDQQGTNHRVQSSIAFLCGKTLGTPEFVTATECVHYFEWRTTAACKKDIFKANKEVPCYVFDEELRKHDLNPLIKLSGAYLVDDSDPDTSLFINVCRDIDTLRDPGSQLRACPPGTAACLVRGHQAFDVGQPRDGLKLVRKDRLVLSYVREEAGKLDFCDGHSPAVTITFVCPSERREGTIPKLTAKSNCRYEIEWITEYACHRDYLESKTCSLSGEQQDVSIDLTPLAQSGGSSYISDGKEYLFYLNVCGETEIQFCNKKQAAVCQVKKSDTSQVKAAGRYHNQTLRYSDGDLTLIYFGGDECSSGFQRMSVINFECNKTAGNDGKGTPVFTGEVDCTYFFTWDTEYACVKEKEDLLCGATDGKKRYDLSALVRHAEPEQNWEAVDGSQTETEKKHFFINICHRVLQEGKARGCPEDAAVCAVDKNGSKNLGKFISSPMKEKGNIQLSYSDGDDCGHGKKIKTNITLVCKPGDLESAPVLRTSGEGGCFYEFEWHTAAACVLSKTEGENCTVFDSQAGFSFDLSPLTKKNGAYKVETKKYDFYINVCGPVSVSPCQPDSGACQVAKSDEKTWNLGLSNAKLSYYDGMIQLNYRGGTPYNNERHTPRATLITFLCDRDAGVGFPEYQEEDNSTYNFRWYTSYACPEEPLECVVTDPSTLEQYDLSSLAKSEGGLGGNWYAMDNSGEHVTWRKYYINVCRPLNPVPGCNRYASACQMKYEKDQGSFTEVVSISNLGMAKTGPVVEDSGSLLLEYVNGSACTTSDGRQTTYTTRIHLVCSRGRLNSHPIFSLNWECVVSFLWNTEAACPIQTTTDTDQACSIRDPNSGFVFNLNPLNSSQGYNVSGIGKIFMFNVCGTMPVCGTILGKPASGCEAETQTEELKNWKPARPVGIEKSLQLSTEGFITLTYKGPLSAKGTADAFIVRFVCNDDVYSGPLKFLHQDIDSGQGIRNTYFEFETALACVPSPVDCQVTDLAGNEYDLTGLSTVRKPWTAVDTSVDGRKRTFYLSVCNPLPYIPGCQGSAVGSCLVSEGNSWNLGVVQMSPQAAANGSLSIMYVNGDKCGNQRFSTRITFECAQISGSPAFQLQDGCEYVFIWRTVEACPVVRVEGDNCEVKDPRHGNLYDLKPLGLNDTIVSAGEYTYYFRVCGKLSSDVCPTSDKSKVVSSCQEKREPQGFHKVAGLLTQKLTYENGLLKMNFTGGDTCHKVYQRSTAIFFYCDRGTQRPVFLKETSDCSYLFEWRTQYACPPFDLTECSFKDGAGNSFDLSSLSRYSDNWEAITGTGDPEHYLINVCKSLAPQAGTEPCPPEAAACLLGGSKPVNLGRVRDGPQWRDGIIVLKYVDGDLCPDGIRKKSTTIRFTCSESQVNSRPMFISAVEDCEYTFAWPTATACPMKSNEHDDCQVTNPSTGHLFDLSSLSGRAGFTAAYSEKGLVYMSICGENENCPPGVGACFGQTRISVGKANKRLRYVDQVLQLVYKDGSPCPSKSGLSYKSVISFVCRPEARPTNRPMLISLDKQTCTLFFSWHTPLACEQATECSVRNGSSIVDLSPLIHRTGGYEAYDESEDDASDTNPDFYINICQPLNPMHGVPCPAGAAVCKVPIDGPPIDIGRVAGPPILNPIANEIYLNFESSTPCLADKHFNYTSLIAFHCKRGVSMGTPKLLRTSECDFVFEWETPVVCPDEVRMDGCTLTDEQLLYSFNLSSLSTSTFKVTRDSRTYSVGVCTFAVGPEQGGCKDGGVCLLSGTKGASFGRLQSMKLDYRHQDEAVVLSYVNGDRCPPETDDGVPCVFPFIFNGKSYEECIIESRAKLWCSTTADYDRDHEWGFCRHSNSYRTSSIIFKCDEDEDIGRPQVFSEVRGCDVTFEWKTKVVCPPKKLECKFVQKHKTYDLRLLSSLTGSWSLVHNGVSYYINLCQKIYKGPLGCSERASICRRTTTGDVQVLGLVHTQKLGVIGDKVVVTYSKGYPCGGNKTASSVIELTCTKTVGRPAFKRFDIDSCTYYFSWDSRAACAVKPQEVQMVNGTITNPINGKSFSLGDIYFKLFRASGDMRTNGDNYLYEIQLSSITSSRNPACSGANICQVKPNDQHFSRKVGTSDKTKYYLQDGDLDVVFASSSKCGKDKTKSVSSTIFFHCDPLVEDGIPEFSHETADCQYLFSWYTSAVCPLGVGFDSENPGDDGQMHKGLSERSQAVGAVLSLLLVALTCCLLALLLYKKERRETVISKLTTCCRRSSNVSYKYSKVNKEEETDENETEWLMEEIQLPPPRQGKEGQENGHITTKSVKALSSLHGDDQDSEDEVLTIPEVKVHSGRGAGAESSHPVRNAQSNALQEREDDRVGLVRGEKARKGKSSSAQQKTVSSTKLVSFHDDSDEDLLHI
# Excerpt: Multiple batches of the rhGAA according to the disclosure were produced in shake flasks and in perfusion bioreactors using CHO cell line GA-ATB200, the product of which is referred to as “ATB200.” Weak anion exchange (“WAX”) liquid chromatography was used to fractionate ATB200 rhGAA according to terminal phosphate and sialic acid. Elution profiles were generated by eluting the ERT with increasing amount of salt. The profiles were monitored by UV (A280 nm).
# To evaluate the ability of the conventional rhGAAs in MYOZYME® and LUMIZYME® to interact with the CIMPR, the two conventional rhGAA preparations were injected onto a CIMPR affinity column (which binds rhGAA having M6P groups) and the flow through collected. The bound material was eluted with a free M6 gradient. Fractions were collected in 96-well plate and GAA activity assayed by 4MU-α-glucosidase substrate. The relative amounts of unbound (flow through) and bound (M6P eluted) rhGAA were determined based on GAA activity and reported as the fraction of total enzyme. […] Indeed, only 27% of the rhGAA in MYOZYME® and 22% of the rhGAA in LUMIZYME® contained M6P that can be productive to target it to the CIMPR on muscle cells.
# [6] = test system: Gaa KO mice; experiment: Single fiber analysis (LAMP1/LC3 co-immunofluorescence, white gastrocnemius); assay type: in vivo, mouse; settings: mouse, in vivo
# Excerpt: FIG. 17 depicts co-immunofluorescent staining of LAMP1 (green) (see for example, “B”) and LC3 (red) (see, for example, “A”) in single fibers isolated from the white gastrocnemius of Gaa KO mice treated with a vehicle, alglucosidase alfa, or ATB200. “C” depicts clearance of autophagic debris and absence of enlarged lysosome. A minimum of 30 fibers were examined from each animal.
# As a result, a significant portion of muscle fibers analyzed (36-60%) from ATB200-treated mice appeared normal or near-normal.
# [7] = test system: LOPD population (PROPEL target population); experiment: Multi-level network meta-regression (ML-NMR) indirect treatment comparison, 6MWD and FVC change from baseline at week 52; parameters: species or system human; settings: base-case scenario
# Method: Using patient-level data from the PROPEL randomized clinical trial (RCT) plus aggregate published data from other RCTs, Phase I/II and open label extension trials, a multi-level network meta-regression was conducted, adjusting for various baseline covariates including previous ERT duration. The base case scenario had covariates resembling the PROPEL population (naïve and ERT-experienced) and analyzed 6MWD and FVC change from baseline at 52 weeks.
# An ITC providing relative effect estimates in the target population of interest (ie an LOPD population including a mix of ERT-naïve and ERT-experienced subjects as in the pivotal Phase III trial comparing Cipa+mig with Alglu [PROPEL]) was performed.
# A systematic literature review (SLR) was conducted to identify relevant published clinical studies of ERTs in LOPD. Outcomes assessed were change from baseline in 6-minute walking distance (6MWD) (m) and in forced vital capacity (FVC; % predicted) at week 52, acknowledged by clinicians, HTA agencies and payers as key LOPD trial endpoints. Aggregate results on 6MWD and FVC change from baseline over time and baseline characteristics (age, gender, ethnicity, previous ERT duration, baseline 6MWD and baseline FVC) were extracted from included studies.
# A multi-level network meta regression (ML-NMR) was performed, which is an extension of standard network meta-analyses (NMAs) that take into account the effect of study-level covariates, and that can be applied to any connected network with any mixture of individual patient-level data (IPD) and aggregate data. ML-NMR is an accepted method by the National Institute for Health and Care Excellence (NICE) in support of cost effectiveness analysis. Single-arm study results were matched to appropriate comparator arms of the comparative studies to allow for inclusion into the network. Mean treatment differences with associated 95% credible intervals (CrIs) were calculated for 6MWD and FVC change from baseline at week 52.
# A base-case scenario was evaluated in which all covariates were set to the target population of the PROPEL trial. To study the impact of previous ERT duration on relative effects, ERT duration value was varied, keeping remaining covariate values as in the base-case scenario. A sensitivity analysis was performed by excluding all matched single-arm evidence from the network to assess its impact on the results.
# Both fixed effects (FE) and random effects (RE) ML-NMR models were applied and the deviance information criteria (DIC) was used to assess goodness-of-fit of the models and to identify the appropriate model (FE or RE model) for the data. Models were implemented in a Bayesian framework using Stan with help of the R package multinma.
# In the base-case scenario, the covariates were set to the baseline characteristics of the target population (ie the PROPEL trial; see Table 20), and time was set to 52 weeks.
# [8] = test system: Pompe disease patients; settings: ERT-experienced patients; cited from earlier work
# [9] = test system: adult subjects with LOPD; experiment: Study ATB200-07 (OLE of PROPEL): 6MWD and % predicted 6MWD; assay type: in vivo, human
# Excerpt: (§1) The study doses and schedule are maintained from Study ATB200-03.
# (§2) Efficacy data are presented in this summary as change from the baseline of Study ATB200-03 (OLE-ES Population).
# [10] = test system: adult subjects with LOPD; experiment: Study ATB200-07 (OLE): sitting % predicted FVC; assay type: in vivo, human
# Excerpt: as §1, §2
# [11] = in vivo
# Method: The ongoing open-label extension (OLE) of PROPEL (NCT04138277; ATB200-07) evaluates long-term safety and efficacy of cipa/mig. Outcomes include 6 minute walk distance (6MWD), forced vital capacity (FVC), creatine kinase (CK) and hexose tetrasaccharide (Hex4) levels and safety. Data are reported as change from the PROPEL baseline to OLE week 52 (104 weeks after the PROPEL baseline).
# [12] = test system: adult subjects with LOPD; experiment: Study ATB200-07 (OLE): CK
# Method: (§3) The Phase III double-blind PROPEL study (NCT03729362; ATB200-03) described in Examples 9 and 10 above compared the investigational two-component therapy cipaglucosidase alfa/miglustat (cipa/mig) with alglucosidase alfa/placebo (alglu) in adults with late-onset Pompe disease (LOPD) over 52 weeks. The ongoing open-label extension (OLE) of PROPEL (NCT04138277; ATB200-07) evaluates long-term safety and efficacy of cipa/mig. Outcomes include 6 minute walk distance (6MWD), forced vital capacity (FVC), creatine kinase (CK) and hexose tetrasaccharide (Hex4) levels and safety. Data are reported as change from the PROPEL baseline to OLE week 52 (104 weeks after the PROPEL baseline).
# [13] = test system: adult subjects with LOPD; experiment: Study ATB200-07 (OLE): Hex4
# Method: as §3
# [14] = human, plasma, oral, 260 mg dose
compound,measurement,setting,value
"CCCCN1C[C@H](O)[C@@H](O)[C@H](O)[C@H]1CO [miglustat, (2R,3R,4R,5S)-1-butyl-2-(hydroxymethyl)piperidine-3,4,5-triol]",dose proportionality,[1]; 130 mg to 260 mg,linear pharmacokinetics
same,AUC,[1]; [14],~25000 ng·h/mL
same,Cmax,[1]; [14],~3000 ng/mL
same,increase of AUC0-24 hr vs normal renal function,[1]; mild renal impairment (CLcr 60-89 mL/minute),21%
same,increase of AUC0-24 hr vs normal renal function,[1]; moderate renal impairment (CLcr 30-59 mL/minute),26%
same,increase of AUC0-24 hr vs normal renal function,[1]; severe renal impairment (CLcr 15-29 mL/minute),31%
same,"effect on sperm concentration, motility, morphology",[2],"No effect on sperm concentration, motility, or morphology"
same,effect on sperm characteristics and fertility,[3],"negatively affects sperm characteristics (motility and morphology), thereby reducing fertility"
same,increase of melting temperature (Tm) of ATB200 by addition of miglustat,[4],~10 °C
same,stabilization of ATB200,[4],stabilized ATB200 at pH 7.4 in a concentration-dependent manner
MYOZYME®: alglucosidase alfa product marketed by Sanofi Genzyme; conventional rhGAA product,rhGAA bound to the CIMPR (fraction of total enzyme),[5]; M6P eluted,27%
same,rhGAA that did not bind to the CIMPR (fraction of total enzyme),[5]; flow through,73%
same,single fiber appearance vs vehicle-treated mice,[6],did not show any significant difference as compared to vehicle-treated mice
"avalglucosidase alfa: recombinant human acid α-glucosidase, avalglucosidase alfa-ngpt; CAS 1802558-87-7","relative effect, sensitivity analysis (RCT data only), 6MWT and FVC",[7],numerically favourable versus Alglu and placebo (6MWT and FVC)
same,long-term motor function by 6MWD after switching from alglucosidase alfa,[8],continue to experience progressive loss of motor function as assessed by 6MWD
same,long-term pulmonary function by FVC after switching from alglucosidase alfa,[8],progressive loss of pulmonary function as assessed by FVC
"cipa/mig-cipa/mig: treatment sequence: cipa/mig in PROPEL, continued cipa/mig in the open-label extension",mean change in % predicted 6MWD from PROPEL baseline to week 104,[9]; ERT-experienced patients,+3.1
same,mean change in % predicted 6MWD from PROPEL baseline to week 104,[9]; ERT-naïve patients,+8.6 (8.57)
same,mean change in % predicted FVC from PROPEL baseline to week 104,[10]; ERT-experienced patients,−0.6 (7.50)
same,mean change in % predicted FVC from PROPEL baseline to week 104,[10]; ERT-naïve patients,−4.8 (6.48)
same,patients with treatment-emergent adverse events,[11],98.8%
same,mean reduction in CK from PROPEL baseline to week 104,[12]; ERT-experienced patients,-132.1 (215.74) U/L
same,mean reduction in CK from PROPEL baseline to week 104,[12]; ERT-naïve patients,−216.9 (243.66) U/L
same,mean reduction in Hex4 from PROPEL baseline to week 104,[13]; ERT-experienced patients,-1.9 (3.22) mmol/mol
same,mean reduction in Hex4 from PROPEL baseline to week 104,[13]; ERT-naïve patients,−2.9 (2.45) mmol/mol
